According to US12252524B2, “GIP/GLP1 co-agonist compounds” (Eli Lilly and Company, priority 2018, dated 2025):
Numbered stars: 1 amine (or outer) side, 2 acyl side, 3 side chain; on linkers, the order of the positions; unused ones are H or OH. Square brackets hold non-standard residues; d marks the D form. Side chains are listed from the residue outwards. Peptide text beside a SMILES is read from it. * marks the point of attachment. C20 diacid = O=C(O)CCCCCCCCCCCCCCCCCCC(=O)*; γGlu = O=C(O)[C@H](CCC(=O)[*:2])N[*:1]; αMeF = C[C@](N)(Cc1ccccc1)C(=O)O; Aad = N[C@@H](CCCC(=O)O)C(=O)O; αMeL = CC(C)C[C@](C)(N)C(=O)O; AEEA = NCCOCCOCC(=O)O; Aib = CC(C)(N)C(=O)O

Assays:
human Gcg receptor = target: T1, human Gcg receptor (Homo sapiens, UniProt P47871); assay: [125I]-Glucagon binding (SPA), human Gcg receptor; settings: read-out: hGLcgR Ki, nM (SEM, n)
T1 construct: expressed in transfected cells; crude membranes
T1 sequence (P47871 26-477): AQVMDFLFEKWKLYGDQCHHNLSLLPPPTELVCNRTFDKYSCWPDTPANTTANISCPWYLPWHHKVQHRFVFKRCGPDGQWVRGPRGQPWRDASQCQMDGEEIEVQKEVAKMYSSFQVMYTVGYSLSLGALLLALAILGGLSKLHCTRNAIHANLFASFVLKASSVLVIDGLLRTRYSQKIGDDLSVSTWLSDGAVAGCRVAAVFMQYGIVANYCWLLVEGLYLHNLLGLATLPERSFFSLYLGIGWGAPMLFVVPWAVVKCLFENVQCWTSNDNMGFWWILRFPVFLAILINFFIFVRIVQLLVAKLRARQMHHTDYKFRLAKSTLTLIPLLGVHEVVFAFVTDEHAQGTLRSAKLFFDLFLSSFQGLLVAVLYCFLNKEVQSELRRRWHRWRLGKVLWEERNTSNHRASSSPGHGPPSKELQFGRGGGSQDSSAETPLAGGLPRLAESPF
Procedure, shortened: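 Scintillation counts are taken after membranes and WGA beads incubate and settle for 12 hours at room temperature. Buffer is 25 mM HEPES, pH 7.4, with CaCl2, MgCl2, bacitracin and Tween-20. Ki values, from four-parameter IC50 fits, are geometric means over independent days.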

human GLP-1R = human GLP-1R (Homo sapiens, UniProt P43220); assay: [125I]-GLP-1 binding (SPA), human GLP-1 receptor; set-up: expressed in transfected cells; crude membranes; settings: read-out: hGLP1R Ki, (nM) (SEM, n)
Chain of human GLP-1R (P43220 24-463): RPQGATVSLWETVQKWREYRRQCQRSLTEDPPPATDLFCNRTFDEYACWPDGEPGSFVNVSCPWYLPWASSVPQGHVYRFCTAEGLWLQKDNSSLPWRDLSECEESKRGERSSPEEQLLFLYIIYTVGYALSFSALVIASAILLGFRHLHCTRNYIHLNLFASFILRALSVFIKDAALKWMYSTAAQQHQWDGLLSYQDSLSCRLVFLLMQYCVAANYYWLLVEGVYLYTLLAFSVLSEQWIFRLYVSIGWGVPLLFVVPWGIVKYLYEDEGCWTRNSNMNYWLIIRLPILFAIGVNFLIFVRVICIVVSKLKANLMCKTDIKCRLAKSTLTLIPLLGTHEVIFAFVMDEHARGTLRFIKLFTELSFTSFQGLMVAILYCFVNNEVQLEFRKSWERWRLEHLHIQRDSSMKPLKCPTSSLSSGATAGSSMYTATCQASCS
Procedure, shortened: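 Ki values are geometric means with SEM over independent replicates on different days, derived from IC50s fitted by four-parameter nonlinear regression. The assay used crude cell membranes in HEPES buffer, pH 7.4, containing CaCl2, MgCl2, bacitracin and TWEEN-20.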

[1] = target: human GLP-1 receptor (GLP-1R) (Homo sapiens, UniProt P43220); assay: cAMP pharmacological functional assay in presence of casein, hGLP-1R; format: cell-based; settings: HEK293 cells expressing hGLP-1R, 0.1% Casein, geometric mean; read-out: hGLP1R cAMP Rel EC50 nM (SEM, n)
Chain of human GLP-1 receptor (GLP-1R) (P43220 24-463): as above

human GIP receptor = target: T2, human GIP receptor (Homo sapiens, UniProt P48546); assay: [125I]-GIP binding (SPA), human GIP receptor; settings: read-out: hGIPR Ki, nM (SEM, n)
T2 construct: expressed in transfected cells; crude membranes
T2 sequence (P48546 22-466): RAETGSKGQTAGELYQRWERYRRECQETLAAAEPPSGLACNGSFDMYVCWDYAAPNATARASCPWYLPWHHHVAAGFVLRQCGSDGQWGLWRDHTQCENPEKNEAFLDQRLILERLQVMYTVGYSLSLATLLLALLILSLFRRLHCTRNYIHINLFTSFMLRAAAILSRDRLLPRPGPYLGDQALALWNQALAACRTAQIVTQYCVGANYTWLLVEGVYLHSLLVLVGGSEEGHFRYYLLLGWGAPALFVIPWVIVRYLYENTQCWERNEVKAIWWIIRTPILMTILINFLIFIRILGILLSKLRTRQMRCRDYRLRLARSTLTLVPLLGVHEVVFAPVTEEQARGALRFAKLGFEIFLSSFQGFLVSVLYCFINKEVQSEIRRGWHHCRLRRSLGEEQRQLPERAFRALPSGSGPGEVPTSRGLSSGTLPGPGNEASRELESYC

[2] = target: T3, gastric inhibitory peptide receptor (GIPR) (Homo sapiens, UniProt P48546); assay: cAMP pharmacological functional assay in presence of casein, hGIPR; format: cell-based; settings: HEK293 cells expressing hGIPR, 0.1% Casein, geometric mean; read-out: hGIPR cAMP Rel EC50 nM (SEM, n)
T3 sequence (P48546 22-466): T2 sequence (P48546 22-466)

Row | SMILES | Ki (human Gcg receptor) | Ki (human GLP-1R) | EC50 [1] | Ki (human GIP receptor) | EC50 [2]
1 | CC[C@H](C)[C@H](NC(=O)[C@H](CC(C)C)NC(=O)[C@H](Cc1ccc(O)cc1)NC(=O)[C@H](CCC(=O)O)NC(=O)[C@@H](NC(=O)[C@H](Cc1ccccc1)NC(=O)[C@H](CCCC(=O)O)NC(=O)C(C)(C)NC(=O)[C@H](CCC(N)=O)NC(=O)[C@H](C)NC(=O)[C@H](CCCCNC(=O)COCCOCCNC(=O)COCCOCCNC(=O)CC[C@H](NC(=O)CCCCCCCCCCCCCCCCCCC(=O)O)C(=O)O)NC(=O)[C@H](CCCCN)NC(=O)[C@H](CC(=O)O)NC(=O)[C@H](CC(C)C)NC(=O)[C@](C)(CC(C)C)NC(=O)[C@@H](NC(=O)[C@H](CO)NC(=O)[C@H](Cc1ccc(O)cc1)NC(=O)[C@H](CC(=O)O)NC(=O)[C@H](CO)NC(=O)[C@@H](NC(=O)[C@](C)(Cc1ccccc1)NC(=O)[C@@H](NC(=O)CNC(=O)[C@H](CCC(=O)O)NC(=O)C(C)(C)NC(=O)[C@@H](N)Cc1ccc(O)cc1)[C@@H](C)O)[C@@H](C)O)[C@@H](C)CC)[C@@H](C)CC)C(=O)N[C@@H](CCC(=O)O)C(=O)NCC(=O)NCC(=O)N1CCC[C@H]1C(=O)N[C@@H](CO)C(=O)N[C@@H](CO)C(=O)NCC(=O)N[C@@H](C)C(=O)N1CCC[C@H]1C(=O)N1CCC[C@H]1C(=O)N1CCC[C@H]1C(=O)N[C@@H](CO)C(N)=O [Example 137] (H-Y[Aib]EGT[αMeF]TSDYSI[αMeL]LDKK([AEEA-AEEA-γGlu-C20 diacid])AQ[Aib][Aad]FIEYLIEGGPSSGAPPPS-NH2) | 98.1 nM | 1.24 nM | 0.0397 nM | 0.0373 nM | 0.0333 nM
2 | CC[C@H](C)[C@H](NC(=O)[C@H](CC(C)C)NC(=O)[C@H](Cc1ccc(O)cc1)NC(=O)[C@H](CCC(=O)O)NC(=O)[C@@H](NC(=O)[C@H](Cc1ccccc1)NC(=O)[C@H](CO)NC(=O)C(C)(C)NC(=O)[C@H](CCC(N)=O)NC(=O)[C@H](C)NC(=O)[C@H](CCCCNC(=O)COCCOCCNC(=O)COCCOCCNC(=O)CC[C@H](NC(=O)CCCCCCCCCCCCCCCCCCC(=O)O)C(=O)O)NC(=O)[C@H](CCCCN)NC(=O)[C@H](CC(=O)O)NC(=O)[C@H](CC(C)C)NC(=O)[C@](C)(CC(C)C)NC(=O)[C@@H](NC(=O)[C@H](CO)NC(=O)[C@H](Cc1ccc(O)cc1)NC(=O)[C@H](CC(=O)O)NC(=O)[C@H](CO)NC(=O)[C@@H](NC(=O)[C@](C)(Cc1ccccc1)NC(=O)[C@@H](NC(=O)CNC(=O)[C@H](CCC(=O)O)NC(=O)C(C)(C)NC(=O)[C@@H](N)Cc1ccc(O)cc1)[C@@H](C)O)[C@@H](C)O)[C@@H](C)CC)[C@@H](C)CC)C(=O)N[C@@H](CCC(=O)O)C(=O)NCC(=O)NCC(=O)N1CCC[C@H]1C(=O)N[C@@H](CO)C(=O)N[C@@H](CO)C(=O)NCC(=O)N[C@@H](C)C(=O)N1CCC[C@H]1C(=O)N1CCC[C@H]1C(=O)N1CCC[C@H]1C(=O)N[C@@H](CO)C(N)=O [Example 138] (H-Y[Aib]EGT[αMeF]TSDYSI[αMeL]LDKK([AEEA-AEEA-γGlu-C20 diacid])AQ[Aib]SFIEYLIEGGPSSGAPPPS-NH2; N-terminus assumed) | 61.2 nM | 0.926 nM | 0.0471 nM | 0.0295 nM | 0.0581 nM
